Key:
[1] = target: T1, hα7-wt nAChR stably expressed in the GH4C1 cell line (Homo sapiens, UniProt P36544); test: Ca2+ flux imaging (FLIPR) of PAM activity with choline as agonist; type: cell-based; conditions: efficacy relative to 100 μM choline alone (defined as 1); peak fluorescence, fluo-4AM; compounds tested 0.1 μM to 30 μM, efficacy criterion at 10 μM
T1 construct: expressed in transfected cells
T1 sequence (P36544 23-502): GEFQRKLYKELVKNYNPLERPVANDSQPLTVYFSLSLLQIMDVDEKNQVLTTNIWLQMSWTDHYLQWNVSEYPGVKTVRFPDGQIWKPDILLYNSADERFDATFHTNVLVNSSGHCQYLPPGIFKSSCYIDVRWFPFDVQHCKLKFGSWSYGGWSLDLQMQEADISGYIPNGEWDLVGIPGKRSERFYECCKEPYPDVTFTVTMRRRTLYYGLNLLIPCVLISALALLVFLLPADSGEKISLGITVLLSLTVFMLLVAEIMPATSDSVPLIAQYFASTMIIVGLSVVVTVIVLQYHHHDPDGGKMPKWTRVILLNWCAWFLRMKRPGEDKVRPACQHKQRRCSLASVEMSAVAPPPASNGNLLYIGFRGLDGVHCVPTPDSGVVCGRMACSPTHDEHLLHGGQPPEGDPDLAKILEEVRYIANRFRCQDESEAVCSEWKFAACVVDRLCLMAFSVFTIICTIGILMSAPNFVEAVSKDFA

With `CS(=O)(=O)NCc1sc(Nc2cccc(C(F)(F)F)c2)nc1-c1cccnc1` [Compound 109] the melting point was 213.6 to 219.8 °C and the “Activity Range” value [1] was “E (E denotes an efficacy from at least 4.5)”.
With `NC(=O)Cc1sc(Nc2cc(Cl)ccc2Cl)nc1-c1ccncc1` [Compound 113, 2-[(2,5-dichlorophenyl)amino]-4-(4-pyridinyl)-5-thiazoleacetamide] the melting point was 249.6 to 257.1 °C and the “Activity Range” value [1] was “E (E denotes an efficacy from at least 4.5)”.
For `OCc1sc(Nc2cc(Cl)ccc2Cl)nc1-c1ccccc1` [int. 23], the melting point was 172.8 to 175 °C and the “Activity Range” value [1] was “D (D denotes an activity range from 3.0 till 4.5)”.
For `CCOC(=O)Cc1sc(Nc2cc(Cl)ccc2Cl)nc1-c1ccncc1` [int. 30], the melting point was 156.8 to 163.5 °C and the “Activity Range” value [1] was “E (E denotes an efficacy from at least 4.5)”.
For `COc1ccc(Nc2nc(-c3ccncc3)c(CO)s2)cc1` [Compound 122, 2-[(4-methoxyphenyl)amino]-4-(4-pyridinyl)-5-thiazolemethanol], the melting point was 126.2 to 126.8 °C and the “Activity Range” value [1] was “E (E denotes an efficacy from at least 4.5)”.
